Experiments:
Test in all cases: Bactericidal activity suspension assay
Assay type in all cases: cell-based
Settings in all cases: 24 hours incubation
[1] = tested on: Aspergillus brasiliensis ATCC 16404
[2] = tested on: Salmonella enterica typhimurium ATCC 14028
[3] = tested on: Candida albicans ATCC 10231
[4] = tested on: Pseudomonas aeruginosa ATCC 9027
[5] = tested on: Staphylococcus aureus ATCC 6538
[6] = tested on: Enterococcus faecalis ATCC 29212
[7] = tested on: Mycobacterium chelonae ATCC 35752
[8] = tested on: Streptococcus viridans ATCC 6249
[9] = tested on: Listeria monocytogenes ATCC 19111

Compound: CCO [ETHANOL, ethanol]
- BACTERICIDAL ACTIVITY % [1]: 90%
- BACTERICIDAL ACTIVITY % [2]: 90%
- BACTERICIDAL ACTIVITY % [3]: 99.9%
- BACTERICIDAL ACTIVITY % [4]: 99.99%
- BACTERICIDAL ACTIVITY % [5]: 99%
- BACTERICIDAL ACTIVITY % [6]: 0%
- BACTERICIDAL ACTIVITY % [7]: 99%
- BACTERICIDAL ACTIVITY % [8]: 90%
- BACTERICIDAL ACTIVITY % [9]: 0%
